# From ChEMBL document CHEMBL1144969, “Structure-based design of thioether-bridged cyclic phosphopeptides binding to Grb2-SH2 domain” (Bioorg Med Chem Lett, 2003)
# Starred links: 1 amine or outer side, 2 acyl side, 3 side chain; linkers in the order of their positions; H or OH if unused. Positions of bridges follow the written chain, without caps; N, C: chain ends. Non-standard residues stand in square brackets, D forms with d. Residues, ends and D or L forms follow the SMILES beside them. pY = N[C@@H](Cc1ccc(OP(=O)(O)O)cc1)C(=O)O; tBuAla = CC(C)(C)C[C@H](N)C(=O)O; X1 = O=C(C[*:2])NCCC(=O)[*:1]; hCys = N[C@@H](CCS)C(=O)O; Ac6c = NC1(C(=O)O)CCCCC1
# Biological target: Growth factor receptor-bound protein 2 (Homo sapiens, UniProt P62993)
# Test: Inhibition of Growth factor receptor-bound protein 2 (Grb2) SH2 domain binding by ELISA
row,SMILES,IC50 [nM]
1,CSCC[C@@H]1NC(=O)CNC(=O)[C@H](C(C)C)NC(=O)[C@H](CC(N)=O)NC(=O)C2(CCCCC2)NC(=O)[C@H](Cc2ccc(OP(=O)(O)O)cc2)NC(=O)[C@H](CC(C)C)NC(=O)CCNC(=O)CSC[C@@H](C(N)=O)NC(=O)[C@H](Cc2ccc(O)cc2)NC1=O (L[pY][Ac6c]NVGMYC-NH2; linker N-9 via X1),21
2,CC(C)[C@@H]1NC(=O)[C@H](CC(N)=O)NC(=O)C2(CCCCC2)NC(=O)[C@H](Cc2ccc(OP(=O)(O)O)cc2)NC(=O)[C@H](Cc2ccccc2)NC(=O)[C@H](C)NC(=O)CSC[C@@H](C(N)=O)NC(=O)[C@H](Cc2ccc(O)cc2)NC(=O)[C@H](CC(C)(C)C)NC(=O)CNC1=O ({CH2CO}-AF[pY][Ac6c]NVG[tBuAla]YC-NH2; thioether N-10),1.68
3,CSCC[C@@H]1NC(=O)CNC(=O)[C@H](C(C)C)NC(=O)[C@H](CC(N)=O)NC(=O)[C@H](CCC(=O)O)NC(=O)[C@H](Cc2ccc(OP(=O)(O)O)cc2)NC(=O)[C@H](CC(C)C)NC(=O)[C@H](C)NC(=O)CSC[C@@H](C(N)=O)NC(=O)[C@H](Cc2ccc(O)cc2)NC1=O ({CH2CO}-AL[pY]ENVGMYC-NH2; thioether N-10),25.3
4,CC(C)C[C@@H]1NC(=O)[C@H](C)NC(=O)CSC[C@@H](C(N)=O)NC(=O)[C@H](Cc2ccc(O)cc2)NC(=O)[C@H](CC(C)(C)C)NC(=O)CNC(=O)[C@H](C(C)C)NC(=O)[C@H](CC(N)=O)NC(=O)[C@H](CCC(=O)O)NC(=O)[C@H](Cc2ccc(OP(=O)(O)O)cc2)NC1=O ({CH2CO}-AL[pY]ENVG[tBuAla]YC-NH2; thioether N-10),14.5
5,CSCC[C@@H]1NC(=O)CNC(=O)[C@H](C(C)C)NC(=O)[C@H](CC(N)=O)NC(=O)[C@H](CCC(=O)O)NC(=O)[C@H](Cc2ccc(OP(=O)(O)O)cc2)NC(=O)[C@H](CC(C)C)NC(=O)CNC(=O)CSC[C@@H](C(N)=O)NC(=O)[C@H](Cc2ccc(O)cc2)NC1=O ({CH2CO}-GL[pY]ENVGMYC-NH2; thioether N-10),31.5
6,CSCC[C@@H]1NC(=O)CNC(=O)[C@H](C(C)C)NC(=O)[C@H](CC(N)=O)NC(=O)[C@H](CCC(=O)O)NC(=O)[C@H](Cc2ccc(OP(=O)(O)O)cc2)NC(=O)[C@H](CC(C)C)NC(=O)[C@@H]2CCCN2C(=O)CSC[C@@H](C(N)=O)NC(=O)[C@H](Cc2ccc(O)cc2)NC1=O ({CH2CO}-PL[pY]ENVGMYC-NH2; thioether N-10),75.7
7,CC(C)C[C@@H]1NC(=O)[C@@H]2CCCN2C(=O)CSC[C@@H](C(N)=O)NC(=O)[C@H](Cc2ccc(O)cc2)NC(=O)[C@H](CC(C)(C)C)NC(=O)CNC(=O)[C@H](C(C)C)NC(=O)[C@H](CC(N)=O)NC(=O)C2(CCCCC2)NC(=O)[C@H](Cc2ccc(OP(=O)(O)O)cc2)NC1=O ({CH2CO}-PL[pY][Ac6c]NVG[tBuAla]YC-NH2; thioether N-10),7.65

# Further compounds by falling IC50, results first:
row,IC50 [nM],SMILES
1,137,CSCC[C@@H]1NC(=O)CNC(=O)[C@H](C(C)C)NC(=O)[C@H](CC(N)=O)NC(=O)[C@H](CCC(=O)O)NC(=O)[C@H](Cc2ccc(OP(=O)(O)O)cc2)NC(=O)[C@H](CC(C)C)NC(=O)[C@H](CCC(=O)O)NC(=O)CSC[C@@H](C(N)=O)NC(=O)[C@H](Cc2ccc(O)cc2)NC1=O ({CH2CO}-EL[pY]ENVGMYC-NH2; thioether N-10)
2,54.7,CSCC[C@@H]1NC(=O)CNC(=O)[C@H](C(C)C)NC(=O)[C@H](CC(N)=O)NC(=O)[C@H](CCC(=O)O)NC(=O)[C@H](Cc2ccc(OP(=O)(O)O)cc2)NC(=O)[C@H](CC(C)C)NC(=O)[C@H](C)NC(=O)CSCC[C@@H](C(N)=O)NC(=O)[C@H](Cc2ccc(O)cc2)NC1=O ({CH2CO}-AL[pY]ENVGMY[hCys]-NH2; thioether N-10)
3,13.3,CC(C)C[C@@H]1NC(=O)[C@H](C)NC(=O)CSC[C@@H](C(N)=O)NC(=O)[C@H](Cc2ccc(O)cc2)NC(=O)[C@H](C)NC(=O)CNC(=O)[C@H](C(C)C)NC(=O)[C@H](CC(N)=O)NC(=O)C2(CCCCC2)NC(=O)[C@H](Cc2ccc(OP(=O)(O)O)cc2)NC1=O ({CH2CO}-AL[pY][Ac6c]NVGAYC-NH2; thioether N-10)
4,8.26,CSCC[C@@H]1NC(=O)CNC(=O)[C@H](C(C)C)NC(=O)[C@H](CC(N)=O)NC(=O)[C@H](CCC(=O)O)NC(=O)[C@H](Cc2ccc(OP(=O)(O)O)cc2)NC(=O)[C@H](CC(C)C)NC(=O)CCNC(=O)CSC[C@@H](C(N)=O)NC(=O)[C@H](Cc2ccc(O)cc2)NC1=O (L[pY]ENVGMYC-NH2; linker N-9 via X1)
5,3.77,CSCC[C@@H]1NC(=O)CNC(=O)[C@H](C(C)C)NC(=O)[C@H](CC(N)=O)NC(=O)C2(CCCCC2)NC(=O)[C@H](Cc2ccc(OP(=O)(O)O)cc2)NC(=O)[C@H](CC(C)C)NC(=O)[C@H](C)NC(=O)CSC[C@@H](C(N)=O)NC(=O)[C@H](Cc2ccc(O)cc2)NC1=O ({CH2CO}-AL[pY][Ac6c]NVGMYC-NH2; thioether N-10)
